Here are results for ten compounds from PMC7571127, “Daurichromenic Acid from the Chinese Traditional Medicinal Plant Rhododendron dauricum Inhibits Sphingomyelin Synthase and Aβ Aggregation” (Molecules, 2020).

Where two headings read alike, the source gives them in different places.

One assay deals with T1, SMS1 (Homo sapiens, UniProt Q86VZ5).
T1 construct: expressed in transfected cells; host or cells: ZS/SMS1 cells (sonicated lysate)
T1 sequence (Q86VZ5 1-413): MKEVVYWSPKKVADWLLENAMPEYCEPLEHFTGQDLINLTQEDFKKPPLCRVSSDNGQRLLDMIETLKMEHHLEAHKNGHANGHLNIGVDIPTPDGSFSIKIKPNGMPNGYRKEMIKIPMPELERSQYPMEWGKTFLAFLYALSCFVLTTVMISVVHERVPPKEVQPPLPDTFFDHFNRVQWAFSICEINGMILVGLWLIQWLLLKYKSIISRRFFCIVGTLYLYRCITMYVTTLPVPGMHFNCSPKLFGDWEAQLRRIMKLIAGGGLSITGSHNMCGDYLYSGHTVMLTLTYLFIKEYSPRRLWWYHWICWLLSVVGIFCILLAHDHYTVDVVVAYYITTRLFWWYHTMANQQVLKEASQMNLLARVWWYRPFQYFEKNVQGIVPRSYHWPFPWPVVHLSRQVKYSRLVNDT
Description: SMS assay, cell lysate with fluorescent substrate C6-NBD-Cer (SMS1). The class given is biochemical. Here is the method:
(§1) The ability of DCA and its derivatives to inhibit the SMS isozymes SMS1 and SMS2 was evaluated using a cell lysate assay and the fluorescent substrate C6-NBD (4-nitrobenzo-2-oxa-1,3-diazole)-Cer. […] Thus, the carboxylic acid group of DCAs are essential moieties for their inhibition of SMSs. However, the SMS has not been succeeded in its crystallization. Therefore, a direct comparison with the previously isolated SMS inhibitor ginkgolic acid has been examined. […] Further, a previous report concerning the mode of action for Aβ aggregation inhibition for small molecules gave the insight that the crucial role of a hydrophobic-side hydrocarbon chain and an aromatic ring as well as its two hydrophilic functions causes significant interaction with the amyloid.
(§2) ZS/SMS1 and ZS/SMS2 cells (protein concentration 0.1 µg/µL) were diluted in 20 mM Tris-buffer (pH 7.5) and sonicated. A 1 µL aliquot of each compound at the desired concentration was added to 100 µL aliquots of the cell lysates and the solutions were incubated at 37 °C for 30 min. A 1 µL aliquot of C6-NBD-ceramide was added to each solution and the solutions were incubated for 3 h at 37 °C. The reactions were stopped by addition of 400 µL of MeOH/CHCl3 [1/2 (v/v)], and the mixtures were shaken and centrifuged at 1500 rpm for 5 min. The formation of C6-NBD-sphingomyelin was quantified by HPLC determination of its peak area. Inhibitory activity was quantified by a reverse-phase HPLC assay using a JACSO HPLC system, equipped with a PU-2089 Plus and FP-2020 Plus set at λex = 470 nm and λem = 530 nm. A 50 × 4.6 YMC-Pack Diol-120-NP column (5-µm particle size) was used with the mobile phase (IPA/hexane/water) at a flow rate of 1.0 mL/min
(§3) Figure 1 Inhibition of SMS1 and SMS2 activities by (a) DCA (1), (b) derivative (4), (c) derivative (6) and (d) derivative (7). IC50 values were measured using a cell lysate assay. SMS-expressing cell lysates and compounds were incubated for 3 h at 37 °C, and the extracted fluorescent lipids were directly analyzed by HPLC. Each point represents the mean ± SD of triplicate assays.

The target in assay [1] is T2, Aβ42 aggregation (Homo sapiens, UniProt P05067).
T2 construct: 30 nM QD-labeled Aβ40 (QDAβ), and 30 μM Aβ42 in PBS
Description: Aβ aggregation inhibition, microtiter-scale high-throughput screening (MSHTS) assay. Type of assay: biochemical. The method, then:
Alzheimer’s disease (AD) is a multifactorial disease, which is believed to be caused by complex interactions among several contributing patho-mechanisms. The ability of DCA and its derivatives, along with other natural compounds, ginkgolic acids (8, 9) (Figure 2) and malabaicone A–C (10, 11 and 12), to inhibit Aβ42 aggregation was evaluated by microtiter-scale high-throughput screening (MSHTS) assays. EC50 values were measured from inhibition curves, in which the percent SDs of fluorescence intensities were plotted against the concentration of each compound (Figure 3). Here, 30 nM quantum dot amyloid beta (QDAβ) and 30 µM of Aβ were incubated with different concentrations to evaluate the EC50 of all derivatives. […] The inhibitory activities of the other cyclized DCAs and malabaricones were lower (Figure S2).
The aggregation inhibitory activities of plant extracts, fractions, DCA, DCA derivatives, and naturally occurring SMS inhibitors (compounds 8, 9, and 10) were measured using a modified MSHTS system. Various concentrations of each were incubated with 30 nM QD-labeled Aβ40 (QDAβ), and 30 μM Aβ42 in PBS containing 5% EtOH and 3% DMSO at 37 °C for 24 h in 1536-well plates (782096, Greiner) (Kremsmünster, Austria). The center of each well as viewed with an inverted fluorescence microscope (TE2000, Nikon)) (Tokyo, Japan) equipped with a color CCD camera (DP72, Olympus) (Tokyo, Japan), and the central region of each well were measured with ImageJ software Ver 1.53b (NIH) to determine the standard deviations (SD) of fluorescence intensities of 40,000 pixels (200 × 200 pixels: 320 × 320 μm). The SD values, which were approximately proportional to the amount of aggregates, were plotted against the concentrations of the putative inhibitors to generate inhibition curves, and the EC50 values were determined.
Figure 3 (A) Inhibition of Aβ42 aggregation by DCA, its derivatives, and natural sphingomyelin synthase inhibitors, as shown by incubation of 30 nM QDAβ and 30 µM Aβ with various concentrations of these compounds. (B) Estimation of EC50 values from inhibition curves, in which the percent SDs of fluorescence intensities were plotted against the concentrations of these compounds.

The next assay concerns the target T3, SMS2 (Homo sapiens, UniProt Q8NHU3).
T3 construct: expressed in transfected cells; host or cells: ZS/SMS2 cells (sonicated lysate)
T3 sequence (Q8NHU3 1-365): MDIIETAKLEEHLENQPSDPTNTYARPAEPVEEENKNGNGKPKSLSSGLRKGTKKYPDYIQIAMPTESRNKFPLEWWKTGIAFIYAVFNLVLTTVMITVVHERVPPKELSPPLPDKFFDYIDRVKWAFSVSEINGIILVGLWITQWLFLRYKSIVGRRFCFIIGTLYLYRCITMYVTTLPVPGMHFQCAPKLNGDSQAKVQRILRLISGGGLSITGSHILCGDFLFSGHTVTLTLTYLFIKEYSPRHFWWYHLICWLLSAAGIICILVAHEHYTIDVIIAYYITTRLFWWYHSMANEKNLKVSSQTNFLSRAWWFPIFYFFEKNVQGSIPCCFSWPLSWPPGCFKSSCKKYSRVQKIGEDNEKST
Description: SMS assay, cell lysate with fluorescent substrate C6-NBD-Cer (SMS2). The class given is biochemical. The method, then: as §1, §2, §3

The test system of the next assay is sphingomyelin synthase. Description: SMS activity, isozyme not specified (abstract value; fractions of Rhododendron dauricum extract). The class given is biochemical. The following applies: isozyme not stated, read-out: IC50, inhibition of sphingomyelin synthase activity.
The target in assay [2] is T2, Aβ42 aggregation. Also on record: method as in PMID 23991168. The following applies: comparison value; read-out: EC50 of Aβ aggregation inhibition (MSHTS); cited from earlier work.
Where [3] appears, read: ZS/SMS1 cell lysate, C6-NBD-ceramide, 3 h at 37 °C, HPLC, read-out: SMS Assay (SMS1) IC50.
Setting [4] is: 30 nM QDAβ and 30 µM Aβ42, 37 °C, 24 h, read-out: MHSTS Assay EC50 (inhibition of Aβ42 aggregation).
[5] abbreviates: ZS/SMS2 cell lysate, C6-NBD-ceramide, 3 h at 37 °C, HPLC, read-out: SMS Assay (SMS2) IC50.
Where [6] appears, read: ZS/SMS1 cell lysate, C6-NBD-ceramide, 3 h at 37 °C, HPLC.
[7] abbreviates: ZS/SMS2 cell lysate, C6-NBD-ceramide, 3 h at 37 °C, HPLC.

T2 sequence (P05067 672-713 limits assumed): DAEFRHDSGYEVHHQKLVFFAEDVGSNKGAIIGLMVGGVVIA
Description for sphingomyelin synthase: The dried powder, weighing 81 g, was extracted three times with 400 mL methanol for 24 h each at room temperature. The methanol extracts were combined and concentrated under reduced pressure, yielding a black residue weighing 24.2 g. The residue was dissolved in 20% MeOH in water (500 mL) and partitioned three times with 200 mL hexane, three times with 200 mL Et2O, and three times with 200 mL EtOAc. The solvents were evaporated, and SMS activities were assessed in the hexane, Et2O, EtOAc, and water residues.
ZS/SMS1 and ZS/SMS2 cells (protein concentration 0.1 µg/µL) were diluted in 20 mM Tris-buffer (pH 7.5) and sonicated. A 1 µL aliquot of each compound at the desired concentration was added to 100 µL aliquots of the cell lysates and the solutions were incubated at 37 °C for 30 min. A 1 µL aliquot of C6-NBD-ceramide was added to each solution and the solutions were incubated for 3 h at 37 °C. The reactions were stopped by addition of 400 µL of MeOH/CHCl3 [1/2 (v/v)], and the mixtures were shaken and centrifuged at 1500 rpm for 5 min. The formation of C6-NBD-sphingomyelin was quantified by HPLC determination of its peak area. Inhibitory activity was quantified by a reverse-phase HPLC assay using a JACSO HPLC system, equipped with a PU-2089 Plus and FP-2020 Plus set at λex = 470 nm and λem = 530 nm. […]

Consider `Cc1cc2c(c(O)c1C(=O)O)CC1[C@]3(C)CCCC(C)(C)[C@H]3CC[C@]1(C)O2` (single isomer, unassigned; (-)) [Compound 7, (−) Hongoquercin A], for which the 50% inhibitory concentration (IC50) was 4 µM at SMS1 (setting [3]) and 5 µM at SMS2 (setting [5]). Besides, at Aβ42 aggregation [1] (setting [4]), the 50% effective concentration (EC50) stood at 238 µM.

For the compound `CC(C)=CCC/C(C)=C/CC[C@@]1(C)C=Cc2c(cc(C)c(C(=O)O)c2O)O1` [Compound 1, Daurichromenic acid], the IC50 worked out at 7 µM at SMS1, 4 µM in the assay with sphingomyelin synthase and 4 µM against SMS2. Further, the 50% effective concentration (EC50) at Aβ42 aggregation [1] is 57 µM.

Turning to `COC(=O)c1c(C)cc2c(c1O)C=C[C@](C)(CC/C=C(\C)CCC=C(C)C)O2` [Compound 2, Methyl Ester of DCA], the “SMS Assay (SMS1) IC50” value at SMS1 (setting [6]) is “inactive”. Further, the “SMS Assay (SMS2) IC50” value on SMS2 (setting [7]) was “inactive”.

On to `COC(=O)c1c(C)cc2c(c1OC)C=C[C@](C)(CC/C=C(\C)CCC=C(C)C)O2` [Compound 3, Methyl(S,E)-2-(4,8-dimethylnona-3,7-dien-1-yl)-5-methoxy-2,7-dimethyl-2H-chromene-6 carboxylate], for which, on SMS1 (setting [6]), the “SMS Assay (SMS1) IC50” value was “inactive”. Further, on SMS2 (setting [7]), the “SMS Assay (SMS2) IC50” value was “inactive”.

With `COc1c2c(cc(C)c1C(=O)O)O[C@@](C)(CC/C=C(\C)CCC=C(C)C)C=C2` [Compound 4, (S,E)-2-(4,8-Dimethylnona-3,7-dien-1-yl)-5-methoxy-2,7-dimethyl-2H-chromene-6-carboxylic acid], the half-maximal inhibitory concentration (IC50) on SMS1 (setting [3]) came to 17 µM; on SMS2 (setting [5]), 10 µM. In addition, the concentration giving a half-maximal response (EC50) on Aβ42 aggregation [1] (setting [4]) is 74 µM.

As to `COC(=O)c1c(C)cc2c(c1O)C=C1[C@]3(C)CCCC(C)(C)[C@H]3CC[C@]1(C)O2` [Compound 5, (−)-(5R,8S,10R)-9,15-Didehydro hongoquercin A methyl ester], the “SMS Assay (SMS1) IC50” value on SMS1 (setting [6]) was “inactive”. Besides, the “SMS Assay (SMS2) IC50” value on SMS2 (setting [7]) was “inactive”.

`Cc1cc2c(c(O)c1C(=O)O)C=C1[C@]3(C)CCCC(C)(C)[C@H]3CC[C@]1(C)O2` [Compound 6, (−)-(5R,8S,10R)-9,15-Didehydro hongoquercin A]: the IC50 came out at 9 µM on SMS1 (setting [3]) and 7 µM at SMS2 (setting [5]).

As for `CCCCCC/C=C\CCCCCCCc1cccc(O)c1C(=O)O` [Compound 8, ginkgolic acid, reference compound], the IC50 at SMS1 (setting [3]) and on SMS2 (setting [5]) was 1.5 µM in each case. At Aβ42 aggregation [1] (setting [4]), the EC50 worked out at 149 µM.

Turning to `CCCCCCCCCCCCCCCc1cccc(O)c1C(=O)O` [Compound 9, ginkgolic acid, reference compound], the IC50 on SMS1 (setting [3]) and on SMS2 (setting [5]) was 2 µM throughout. For the same compound, on Aβ42 aggregation [1] (setting [4]), the EC50 is 296 µM.

Turning to `O=C(/C=C/c1ccc(O)c(O)c1)O[C@H](Cc1ccc(O)c(O)c1)C(=O)O` [rosmarinic acid], at Aβ42 aggregation [2], the EC50 is 60 µM.
